Here are results for 25 molecules from patent publication US20070213301A1 (ACHILLION PHARMACEUTICALS, INC., priority 2006, published 2007).

By EC50 is commonly meant the concentration that produces a half-maximal response.

The subject of this test is HCV replicon. The experiment in a line: HCV replicon replication assay (NPTII ELISA). Format: cell-based, Hepatitis C virus (Huh-7 cells). As to conditions: Hepatitis C virus, Huh-7, 72 h, inhibition of HCV replicon replication in Huh-7 HCV replicon-containing cells, three days incubation, NPT level by ELISA; read-out: EC50. On the procedure: Compounds claimed herein are tested for the ability to inhibit viral replication of the Hepatitis C replicon in cultured cells in which the HCV replicon construct has been incorporated. The HCV replicon system was described by Bartenschlager, et. al (Science, 285, pp. 110-113 (1999)). The replicon system is predictive of in vivo anti-HCV activity; compounds that are active in humans uniformly evidence activity in the replicon assay.
In this assay HCV replicon containing cells are treated with different concentrations of the test compound to ascertain the ability of the test compound to suppress replication of the HCV replicon. As a positive control, HCV replicon-containing cells are treated with different concentrations of interferon alpha, a known inhibitor of HCV replication. The replicon assay system includes Neomycin Phosphotransferase (NPT) as a component of the replicon itself in order to detect the transcription of replicon gene products in the host cell. Cells in which the HCV replicon is actively replicating have high levels of NPT; the level of NPT is proportional to HCV replication. […] The NPT level of each sample is measured using a captured ELISA.
The HCV replicon contains, 5′-3′, the HCV-IRES, the neomycin phosphotransferase (neo) gene, the IRES of encephalomyocarditis virus, which directs translation of HCV sequences NS3 to NS5B, and the 3′-NTR. The sequence of the HCV replicon has been deposited in GenBank (Accession no. AJ242652).
The replicon is transfected into Huh-7 cells using standard methods such as electroporation.
The cells are then seeded onto 96-well plates at a density of 6000-7500 cells/100 microliters/well (6-7.5×10^5 cells/10 ml/plate). The plates are then incubated at 37° C. in a 5% CO2 incubator.
HCV replicon-containing cells are rinsed with once PBS once; 2 mls of trypsin are then added. Cells are incubated at 37° C. in a 5% CO2 incubator for 3-5 minutes. 10 mls of complete medium is added to stop the reaction. Cells are blown gently, put into a 15 ml tube, and spun at 1200 rpm for four minutes. The trypsin/medium solution is removed and 5 mls of medium (500 ml DMEM (high glucose)) from BRL catalog #12430-054; 50 mls 10% FBS, 5% Geneticin G418 (50 mg/ml, BRL catalog #10131-035), 5 ml MEM non-essential amino acids (100× BRL #11140-050) and 5 ml pen-strep (BRL #15140-148) is added. The cells and media are mixed carefully
Cells are plated with screening medium (500 ml DMEM (BRL #21063-029), 50 ml FBS (BRL #10082-147) and 5 ml MEM non-essential amino acid (BRL #11140-050) at 6000-7500 cells/100 μl/well of 96 well plate (6-7.5×10^5 cells/10 ml/plate). Plates are placed into 37° C. 5% CO2 incubator overnight.
The following morning, drugs (test compounds or interferon alpha) are diluted in 96 well U bottom plates with media or DMSO/media, depending on the final concentration chosen for screening. Generally for 6 concentrations of each test compounds ranging from 10 micromolar to 0.03 micromolar are applied. 100 μl of the test compound dilution is placed in wells of the 96 well plate containing the HCV replicon cells. Media without drug is added to some wells as a negative controls. DMSO is known to affect cell growth. Therefore, if drugs diluted in DMSO are used, all wells, including negative control (media only) and positive control (interferon alpha) wells, must contain the same concentration of DMSO, for single dose screening. The plates are incubated at 37° C. in a humidified 5% CO2 environment for three days.
On day four, the NTPII assay is quantitated. The medium is poured from the plates and the plates are washed once in 200 μl of PBS. The PBS is then decanted and the plates tapped in a paper towel to remove any remaining PBS. Cells are fixed in situ with 100 μl/well of pre-cooled (−20° C.) methanol:acetone (1:1) and the plates are placed at −20° C. for 30 minutes.
The fixing solution is poured from the plates and the plates allowed to air-dry completely (approximately one hour). […]

In the case of `CCCCCOc1ccc(N(C(C)=O)c2nc(-c3ccc(F)cc3)cs2)cc1C(F)(F)F` [Compound 1, N-(4-(4-fluorophenyl)thiazol-2-yl)-N-(4-(pentyloxy)-3-(trifluoromethyl)phenyl)acetamide], the EC50 was under 1000 nM. Under `CCCCCOc1ccc(N(C)c2nc(-c3cccnc3)cs2)cc1C(F)(F)F` [Compound 2, N-methyl-N-(4-(pentyloxy)-3-(trifluoromethyl)phenyl)-4-(pyridin-3-yl)thiazol-2-amine] stands under 1000 nM; under `CCCCCOc1ccc(N(C)c2nc(C(=O)O)cs2)cc1C(F)(F)F` [Compound 3, 2-(methyl(4-(pentyloxy)-3-(trifluoromethyl)phenyl)amino)thiazole-4-carboxylic acid], over 10000 nM. For the molecule `CCCCCOc1ccc(N(C)c2nc(C(=O)Nc3ccc(Cl)cc3)cs2)cc1C(F)(F)F` [Compound 4, N-(4-chlorophenyl)-2-(methyl(4-(pentyloxy)-3-(trifluoromethyl)phenyl)amino)thiazole-4-carboxamide], the EC50 fell in the range of 1000 to 10000 nM. As for `CCCCCOc1ccc(N(C)c2nc(C(=O)Nc3ccc(C#N)cc3)cs2)cc1C(F)(F)F` [Compound 5, N-(4-cyanophenyl)-2-(methyl(4-(pentyloxy)-3-(trifluoromethyl)phenyl)amino)thiazole-4-carboxamide], the figure is over 10000 nM. Under `CCCCCOc1ccc(N(C)c2nc(C(=O)Nc3cccnc3)cs2)cc1C(F)(F)F` [Compound 6, 2-(methyl(4-(pentyloxy)-3-(trifluoromethyl)phenyl)amino)-N-(pyridin-3-yl)thiazole-4-carboxamide] stands 1000 to 10000 nM; under `CCCCCOc1ccc(N(C(C)=O)c2nc(C(=O)Nc3cccnc3)cs2)cc1C(F)(F)F` [Compound 7, 2-(N-(4-(pentyloxy)-3-(trifluoromethyl)phenyl)acetamido)-N-(pyridin-3-yl)thiazole-4-carboxamide], 1000 to 10000 nM. Consider `CCCCCOc1ccc(N(C)c2nc(-c3ccc(CN4CCOCC4)nc3)cs2)cc1C(F)(F)F` [Compound 8, N-methyl-4-(6-(morpholinomethyl)pyridin-3-yl)-N-(4-(pentyloxy)-3-(trifluoromethyl)phenyl)thiazol-2-amine], for which the EC50 was 1000 to 10000 nM. Regarding `CCCCCOc1ccc(N(CC(=O)N(CC)CC)c2nc(-c3cccnc3)cs2)cc1C(F)(F)F` [Compound 9, N,N-diethyl-2-((4-(pentyloxy)-3-(trifluoromethyl)phenyl)(4-(pyridin-3-yl)thiazol-2-yl)amino)acetamide], the EC50 was over 10000 nM. As to `CCCCCOc1ccc(N(C)c2nc(-c3ccc(CN4CCN(C)CC4)nc3)cs2)cc1C(F)(F)F` [Compound 10, N-methyl-4-(6-((4-methylpiperazin-1-yl)methyl)pyridin-3-yl)-N-(4-(pentyloxy)-3-(trifluoromethyl)phenyl)thiazol-2-amine], the EC50 was under 1000 nM. In the case of `CCCCCOc1ccc(N(CCN(C)C)c2nc(-c3cccnc3)cs2)cc1C(F)(F)F` [Compound 11, N1,N1-dimethyl-N2-(4-(pentyloxy)-3-(trifluoromethyl)phenyl)-N2-(4-(pyridin-3-yl)thiazol-2-yl)ethane-1,2-diamine], the EC50 fell in the range of 1000 to 10000 nM.

With `CCCCCOc1ccc(N(C(C)=O)c2nc(-c3cccnc3)cs2)cc1C(F)(F)F` [Compound 12, N-(4-(pentyloxy)-3-(trifluoromethyl)phenyl)-N-(4-(pyridin-3-yl)thiazol-2-yl)acetamide], the EC50 was under 1000 nM. As for `CCCCCOc1ccc(N(C(=O)C2CC2)c2nc(-c3ccc(C(=O)N(C)C)cn3)cs2)cc1C(F)(F)F` [Compound 13, N,N-dimethyl-6-(2-(N-(4-(pentyloxy)-3-(trifluoromethyl)phenyl)cyclopropane-carboxamido)thiazol-4-yl)nicotinamide], the figure is over 10000 nM.

Turning to `CCCCCOc1ccc(N(C(=O)C(C)C)c2nc(-c3cccnc3)cs2)cc1C(F)(F)F` [Compound 14, N-(4-(pentyloxy)-3-(trifluoromethyl)phenyl)-N-(4-(pyridin-3-yl)thiazol-2-yl)isobutyramide], the EC50 is under 1000 nM. Under `CCCCCOc1ccc(N(C(=O)C2CC2)c2nc(-c3cccnc3)cs2)cc1C(F)(F)F` [Compound 15, N-(4-(pentyloxy)-3-(trifluoromethyl)phenyl)-N-(4-(pyridin-3-yl)thiazol-2-yl)cyclopropanecarboxamide] stands under 1000 nM; under `CCCCCOc1ccc(N(C(C)=O)c2nc(-c3ccc(CN(C)C)nc3)cs2)cc1C(F)(F)F` [Compound 16, N-(4-(6-((dimethylamino)methyl)pyridin-3-yl)thiazol-2-yl)-N-(4-(pentyloxy)-3-(trifluoromethyl)phenyl)acetamide], 1000 to 10000 nM; under `CCCCCOc1ccc(N(C(=O)C2CC2)c2nc(-c3ccc(CN(C)C)nc3)cs2)cc1C(F)(F)F` [Compound 17, N-(4-(6-((dimethylamino)methyl)pyridin-3-yl)thiazol-2-yl)-N-(4-(pentyloxy)-3-(trifluoromethyl)phenyl)cyclopropane-carboxamide], 1000 to 10000 nM. In the case of `CCCCCOc1ccc(N(C(=O)C(C)C)c2nc(-c3ccc(CN(C)C)nc3)cs2)cc1C(F)(F)F` [Compound 19, N-(4-(6-((dimethylamino)methyl)pyridin-3-yl)thiazol-2-yl)-N-(4-(pentyloxy)-3-(trifluoromethyl)phenyl)isobutyramide], the EC50 lay within 1000 to 10000 nM. Under `CCCCCOc1ccc(N(C(C)=O)c2nc(CN(C)C)cs2)cc1C(F)(F)F` [Compound 20, N-(4-((dimethylamino)methyl)thiazol-2-yl)-N-(4-(pentyloxy)-3-(trifluoromethyl)phenyl)acetamide] stands 1000 to 10000 nM. Under `CCCCCOc1ccc(N(C(=O)C(C)C)c2nc(CN(C)C)cs2)cc1C(F)(F)F` [Compound 21, N-(4-((dimethylamino)methyl)thiazol-2-yl)-N-(4-(pentyloxy)-3-(trifluoromethyl)phenyl)isobutyramide] stands 1000 to 10000 nM.

`CCCCCOc1ccc(N(C(=O)C2CC2)c2nc(CN(C)C)cs2)cc1C(F)(F)F` [Compound 22, N-(4-((dimethylamino)methyl)thiazol-2-yl)-N-(4-(pentyloxy)-3-(trifluoromethyl)phenyl)cyclopropane-carboxamide]: the EC50 lay within 1000 to 10000 nM. Under `CCCCCOc1ccc(N(C(=O)C(=O)OC)c2nc(CN(C)C)cs2)cc1C(F)(F)F` [Compound 23, methyl 2-((4-((dimethylamino)methyl)thiazol-2-yl)(4-(pentyloxy)-3-(trifluoromethyl)phenyl)amino)-2-oxoacetate] stands 1000 to 10000 nM; under `CCCCCOc1ccc(N(C(C)=O)c2nc(-c3cccnc3)cs2)cc1F` [Compound 24, N-(3-fluoro-4-(pentyloxy)phenyl)-N-(4-(pyridin-3-yl)thiazol-2-yl)acetamide], under 1000 nM. For `CCCCCOc1ccc(N(C(=O)C(C)C)c2nc(-c3cccnc3)cs2)cc1F` [Compound 25, N-(3-fluoro-4-(pentyloxy)phenyl)-N-(4-(pyridin-3-yl)thiazol-2-yl)isobutyramide], the EC50 is under 1000 nM. Under `CCCCCOc1ccc(N(C(=O)C2CC2)c2nc(-c3cccnc3)cs2)cc1F` [Compound 26, N-(3-fluoro-4-(pentyloxy)phenyl)-N-(4-(pyridin-3-yl)thiazol-2-yl)cyclopropanecarboxamide] stands under 1000 nM.
